Where two headings read alike, the source gives them in different places. Values belong to the molecule of their own block, whether it stands above or below them.
Legend:
[1] = test system: portions of intestine turned inside out; test: absorption by portions of intestine turned inside out; assay type: in vitro ADME
Method: In the 2nd test, portions of intestine turned inside out were used, incubated at 37° C. in accordance with Krebs Ringer against an external product concentration of 10^-4 M. The products were all salified with H2 SO4 to give salts in which m was 0 or 1 and n was 3.

physchem = assay type: physicochemical; conditions: water
[2] = absorption "in situ" (intestinal sacs); assay type: in vivo, rat; conditions: rat, in situ intestinal sacs, 2 mg in 1 ml physiological solution, rats, H2 SO4 salts, m 0 or 1, n 3, read-out: PRODUCT ABSORPTION in sacs
Method: (§1) In the 1st test, known as "in situ" (intestinal sacs), 2 mg of each product to be tested in 1 ml of physiological solution were placed in intestinal sacs provided in rats under ether anesthesia. The rats were killed after 2 hours, and the residual content of the sac (wall+content) was analysed. In the 2nd test, portions of intestine turned inside out were used, incubated at 37° C. in accordance with Krebs Ringer against an external product concentration of 10^-4 M. The products were all salified with H2 SO4 to give salts in which m was 0 or 1 and n was 3.

intestinal sacs = test: absorption "in situ" (intestinal sacs); assay type: in vivo, rat; conditions: 2 mg in 1 ml physiological solution, rats, 2 hours; H2 SO4 salts, m 0 or 1, n 3
Method: as §1

[3] = stability in the dry state at 45° C.; assay type: physicochemical
[4] = 37° C., Krebs Ringer, external concentration 10^-4 M, H2 SO4 salts, m 0 or 1, n 3
[5] = 45° C., 60 days, read-out: Degradation at 45° C. after 60 days
[6] = 45° C., 120 days, read-out: Degradation at 45° C. after 120 days
[7] = 45° C., 180 days, read-out: Degradation at 45° C. after 180 days
[8] = 45° C., 240 days, read-out: Degradation at 45° C. after 240 days
[9] = 45° C., 360 days, read-out: Degradation at 45° C. after 360 days

PRODUCT ABSORPTION intestine inside out [1, 4]: 0.061 nmoles/h/mg tissue | degraded at 0.25 h (physchem; pH 2): 2% | degraded at 0.5 h (physchem; pH 2): 4% | degraded at 1 h (physchem; pH 2): 8% | degraded at 4 h (physchem; pH 2): 35% | degraded at 0.25 h (physchem; pH 3): 3% | degraded at 0.5 h (physchem; pH 3): 6% | degraded at 1 h (physchem; pH 3): 13% | degraded at 4 h (physchem; pH 3): 55% | degraded at 0.25 h (physchem; pH 4): 5% | degraded at 0.5 h (physchem; pH 4): 9% | degraded at 1 h (physchem; pH 4): 19% | degraded at 4 h (physchem; pH 4): 80% | Fa at 2 h [2]: 59%
Molecule: CCOC(=O)[C@@H](N)CC[S+](C)C[C@H]1O[C@@H](n2cnc3c(N)ncnc32)[C@H](O)[C@@H]1O (some centres unmarked) [C2 H5, SAM ethyl ester]

PRODUCT ABSORPTION intestine inside out [1]: 0.009 nmoles/h/mg tissue | degraded at 0.25 h (physchem; pH 2): 80% | degraded at 0.5 h (physchem; pH 2): 100% | degraded at 1 h (physchem; pH 2): 100% | degraded at 4 h (physchem; pH 2): 100% | degraded at 0.25 h (physchem; pH 3): 90% | degraded at 0.5 h (physchem; pH 3): 100% | degraded at 1 h (physchem; pH 3): 100% | degraded at 4 h (physchem; pH 3): 100% | degraded at 0.25 h (physchem; pH 4): 100% | degraded at 0.5 h (physchem; pH 4): 100% | degraded at 1 h (physchem; pH 4): 100% | degraded at 4 h (physchem; pH 4): 100%
Molecule: C[S+](CC[C@H](N)C(=O)[O-])C[C@H]1O[C@@H](n2cnc3c(N)ncnc32)[C@H](O)[C@@H]1O (some centres unmarked) [H, S-adenosylmethionine]

PRODUCT ABSORPTION intestine inside out [1, 4]: 0.047 nmoles/h/mg tissue | Fa at 2 h [2]: 65%
Molecule: CC(=O)N[C@@H](CC[S+](C)C[C@H]1O[C@@H](n2cnc3c(N)ncnc32)[C@H](OC(C)=O)[C@@H]1OC(C)=O)C(=O)[O-] (some centres unmarked) [H COCH3 COCH3, SAM triacetyl]

PRODUCT ABSORPTION intestine inside out [1, 4]: 0.025 nmoles/h/mg tissue | Fa at 2 h [2]: 68%
Molecule: CCCCCOC(=O)[C@@H](N)CC[S+](C)C[C@H]1O[C@@H](n2cnc3c(N)ncnc32)[C@H](O)[C@@H]1O (some centres unmarked) [C5 H11 H H, SAM n-pentyl ester]

PRODUCT ABSORPTION intestine inside out [1, 4]: 0.023 nmoles/h/mg tissue | PRODUCT ABSORPTION in sacs (intestinal sacs): 62 % of dose
Molecule: SAM n-octyl [H Octyl H]

PRODUCT ABSORPTION intestine inside out [1, 4]: 0.016 nmoles/h/mg tissue | Fa at 2 h [2]: 25%
Molecule: C[S+](CC[C@H](NC(=O)CCC(=O)O)C(=O)[O-])C[C@H]1O[C@@H](n2cnc3c(N)ncnc32)[C@H](O)[C@@H]1O (some centres unmarked) [H Succinyl H, SAM succinyl]

PRODUCT ABSORPTION intestine inside out [1, 4]: 0.023 nmoles/h/mg tissue | Fa at 2 h [2]: 67%
Molecule: CCCCCCOC(=O)[C@@H](N)CC[S+](C)C[C@H]1O[C@@H](n2cnc3c(N)ncnc32)[C@H](O)[C@@H]1O (some centres unmarked) [C6 H13 H H, SAM n-hexyl ester]

PRODUCT ABSORPTION intestine inside out [1, 4]: 0.018 nmoles/h/mg tissue | Fa at 2 h [2]: 23%
Molecule: C[S+](CC[C@H](NC(=O)CCCC(=O)O)C(=O)[O-])C[C@H]1O[C@@H](n2cnc3c(N)ncnc32)[C@H](O)[C@@H]1O (some centres unmarked) [H Glutaryl H, SAM glutaryl]

PRODUCT ABSORPTION intestine inside out [1, 4]: 0.021 nmoles/h/mg tissue | Fa at 2 h [2]: 13%
Molecule: Cc1ccc(S(=O)(=O)N[C@@H](CC[S+](C)C[C@H]2O[C@@H](n3cnc4c(N)ncnc43)[C@H](O)[C@@H]2O)C(=O)[O-])cc1 (some centres unmarked) [H p.tol. sulphon. H, SAM p-toluenesulphonyl]

PRODUCT ABSORPTION intestine inside out [1, 4]: 0.037 nmoles/h/mg tissue | degraded at 0.25 h (physchem; pH 2): 2% | degraded at 0.5 h (physchem; pH 2): 4% | degraded at 1 h (physchem; pH 2): 8% | degraded at 4 h (physchem; pH 2): 30% | degraded at 0.25 h (physchem; pH 3): 3% | degraded at 0.5 h (physchem; pH 3): 6% | degraded at 1 h (physchem; pH 3): 12% | degraded at 4 h (physchem; pH 3): 52% | degraded at 0.25 h (physchem; pH 4): 4% | degraded at 0.5 h (physchem; pH 4): 9% | degraded at 1 h (physchem; pH 4): 17% | degraded at 4 h (physchem; pH 4): 75% | Fa at 2 h [2]: 65%
Molecule: CCCCOC(=O)[C@@H](N)CC[S+](C)C[C@H]1O[C@@H](n2cnc3c(N)ncnc32)[C@H](O)[C@@H]1O (some centres unmarked) [C4 H9, SAM n-butyl ester]

PRODUCT ABSORPTION intestine inside out [1, 4]: 0.017 nmoles/h/mg tissue | Fa at 2 h [2]: 12%
Molecule: C[S+](CC[C@H](NC(=O)c1ccccc1)C(=O)[O-])C[C@H]1O[C@@H](n2cnc3c(N)ncnc32)[C@H](O)[C@@H]1O (some centres unmarked) [H COC6 H5 H, SAM benzoyl]

PRODUCT ABSORPTION intestine inside out [1, 4]: 0.028 nmoles/h/mg tissue | Fa at 2 h [2]: 18%
Molecule: CCCCC(=O)N[C@@H](CC[S+](C)C[C@H]1O[C@@H](n2cnc3c(N)ncnc32)[C@H](O)[C@@H]1O)C(=O)[O-] (some centres unmarked) [H COC4 H9 H]

PRODUCT ABSORPTION intestine inside out [1, 4]: 0.046 nmoles/h/mg tissue | Fa at 2 h [2]: 10%
Molecule: CC(=O)N[C@@H](CC[S+](C)C[C@H]1O[C@@H](n2cnc3c(N)ncnc32)[C@H](O)[C@@H]1O)C(=O)[O-] (some centres unmarked) [H COCH3 H, SAM monoacetyl]

PRODUCT ABSORPTION intestine inside out [1, 4]: 0.045 nmoles/h/mg tissue | Fa at 2 h [2]: 61%
Molecule: CCCOC(=O)[C@@H](N)CC[S+](C)C[C@H]1O[C@@H](n2cnc3c(N)ncnc32)[C@H](O)[C@@H]1O (some centres unmarked) [C3 H7 H H, SAM n-propyl ester]

degraded at 1440 h [3, 5]: 1% | degraded at 2880 h [3, 6]: 1.9% | degraded at 4320 h [3, 7]: 4.1% | degraded at 5760 h [3, 8]: 5.9% | degraded at 8640 h [3, 9]: 8%
Molecule: CC(=O)N[C@@H](CC[S+](C)C[C@H]1O[C@@H](n2cnc3c(N)ncnc32)[C@H](OC(C)=O)[C@@H]1OC(C)=O)C(=O)[O-] (some centres unmarked) [SAM triacetyl. 2 H2 SO4, SAM triacetyl]

PRODUCT ABSORPTION intestine inside out [1, 4]: 0.078 nmoles/h/mg tissue | degraded at 0.25 h (physchem; pH 2): 5% | degraded at 0.5 h (physchem; pH 2): 10% | degraded at 1 h (physchem; pH 2): 21% | degraded at 4 h (physchem; pH 2): 75% | degraded at 0.25 h (physchem; pH 3): 6% | degraded at 0.5 h (physchem; pH 3): 13% | degraded at 1 h (physchem; pH 3): 25% | degraded at 4 h (physchem; pH 3): 100% | degraded at 0.25 h (physchem; pH 4): 8% | degraded at 0.5 h (physchem; pH 4): 18% | degraded at 1 h (physchem; pH 4): 40% | degraded at 4 h (physchem; pH 4): 100% | Fa at 2 h [2]: 55%
Molecule: COC(=O)[C@@H](N)CC[S+](C)C[C@H]1O[C@@H](n2cnc3c(N)ncnc32)[C@H](O)[C@@H]1O (some centres unmarked) [CH3, SAM methyl ester]

degraded at 1440 h [3]: 80% | degraded at 2880 h [3]: 100% | degraded at 4320 h [3]: 100% | degraded at 5760 h [3]: 100% | degraded at 8640 h [3]: 100%
Molecule: C[S+](CC[C@H](N)C(=O)[O-])C[C@H]1O[C@@H](n2cnc3c(N)ncnc32)[C@H](O)[C@@H]1O (some centres unmarked) [SAM. H2 SO4, S-adenosylmethionine]

degraded at 1440 h [3, 5]: 0% | degraded at 2880 h [3, 6]: 1.4% | degraded at 4320 h [3, 7]: 3% | degraded at 5760 h [3, 8]: 4.6% | degraded at 8640 h [3, 9]: 5.5%
Molecule: CC(=O)N[C@@H](CC[S+](C)C[C@H]1O[C@@H](n2cnc3c(N)ncnc32)[C@H](O)[C@@H]1O)C(=O)[O-] (some centres unmarked) [SAM monoacetyl. 2 H2 SO4, SAM monoacetyl]

PRODUCT ABSORPTION intestine inside out [1, 4]: 0.019 nmoles/h/mg tissue | PRODUCT ABSORPTION in sacs (intestinal sacs): 65 % of dose
Molecule: SAM n-dodecyl [H Dodecyl H]

PRODUCT ABSORPTION intestine inside out [1, 4]: 0.031 nmoles/h/mg tissue | Fa at 2 h [2]: 87%
Molecule: CCCCC(=O)N[C@@H](CC[S+](C)C[C@H]1O[C@@H](n2cnc3c(N)ncnc32)[C@H](OC(=O)CCCC)[C@@H]1OC(=O)CCCC)C(=O)[O-] (some centres unmarked) [H COC4 H9 COC4 H9]

PRODUCT ABSORPTION intestine inside out [1, 4]: 0.035 nmoles/h/mg tissue | Fa at 2 h [2]: 91%
Molecule: CC(=O)O[C@@H]1[C@H](OC(C)=O)[C@@H](C[S+](C)CC[C@H](NC(=O)CCC(=O)O)C(=O)[O-])O[C@H]1n1cnc2c(N)ncnc21 (some centres unmarked) [H Succinyl COCH3, SAM succinyl-diacetyl]

Reference: US4558122A, “Stable s-adenosylmethionine derivatives, the process for their preparation, and therapeutic compositions which contain them as active principle” (Bioresearch S.P.A., priority 1981, dated 1985)
